≈ marks a conversion by molar mass, not a printed value.
Key:
[1] = Distribution coefficient, logD of compound at pH 7.4; type: physicochemical; details: octanol/water
[2] = Intrinsic clearance in rat hepatocytes assessed per 10^6 cells; type: ADME, cell-based, Hepatocyte; details: read-out: CLH
[3] = Aqueous solubility of the compound; type: physicochemical
[4] = target: T1, Tyrosine-protein kinase receptor UFO (Homo sapiens, UniProt P30530); assay: (§1) Inhibition of GST-tagged AXL (unknown origin) (464 to 485 residues) using Axltide (CKKSRGDYMTMQJG-acid) peptide as substrate preincubated for 30 mins followed by substrate and ATP addition at Km concentration measured after 180 mins by RapidFire LC-MS analysis
T1 sequence (P30530 whole entry): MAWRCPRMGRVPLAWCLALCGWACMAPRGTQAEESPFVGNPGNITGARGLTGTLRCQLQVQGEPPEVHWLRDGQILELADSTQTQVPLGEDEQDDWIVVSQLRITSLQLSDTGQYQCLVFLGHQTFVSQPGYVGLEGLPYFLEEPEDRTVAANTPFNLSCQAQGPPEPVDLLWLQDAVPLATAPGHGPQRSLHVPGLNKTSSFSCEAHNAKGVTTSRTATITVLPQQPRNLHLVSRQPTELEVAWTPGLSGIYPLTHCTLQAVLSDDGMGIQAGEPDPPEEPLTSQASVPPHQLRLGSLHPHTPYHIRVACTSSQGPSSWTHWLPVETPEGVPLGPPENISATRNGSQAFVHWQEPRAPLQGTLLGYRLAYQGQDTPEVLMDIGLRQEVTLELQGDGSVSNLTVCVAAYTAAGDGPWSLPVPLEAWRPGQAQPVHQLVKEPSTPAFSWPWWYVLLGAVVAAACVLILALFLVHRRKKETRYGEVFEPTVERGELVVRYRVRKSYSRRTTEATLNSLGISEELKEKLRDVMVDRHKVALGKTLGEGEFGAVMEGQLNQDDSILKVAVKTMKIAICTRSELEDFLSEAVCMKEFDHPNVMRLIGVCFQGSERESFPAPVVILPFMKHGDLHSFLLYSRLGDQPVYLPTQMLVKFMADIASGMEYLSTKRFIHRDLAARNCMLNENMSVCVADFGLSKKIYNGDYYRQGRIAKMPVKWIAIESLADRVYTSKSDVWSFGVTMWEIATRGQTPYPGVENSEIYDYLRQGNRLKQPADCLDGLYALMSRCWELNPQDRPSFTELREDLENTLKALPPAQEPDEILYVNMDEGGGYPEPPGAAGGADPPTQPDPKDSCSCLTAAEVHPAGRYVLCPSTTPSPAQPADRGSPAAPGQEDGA

[5] = target: T2, Receptor-type tyrosine-protein kinase FLT3 (Homo sapiens, UniProt P36888); assay: Inhibition of His6/TEV fused-GST-tagged Flt3 (unknown origin) (H564 to S993 residues) using Axltide (CKKSRGDYMTMQJ-acid) peptide as substrate preincubated for 30 mins followed by substrate and ATP addition at Km concentration measured after 75 mins by RapidFire LC-MS analysis
T2 sequence (P36888 whole entry): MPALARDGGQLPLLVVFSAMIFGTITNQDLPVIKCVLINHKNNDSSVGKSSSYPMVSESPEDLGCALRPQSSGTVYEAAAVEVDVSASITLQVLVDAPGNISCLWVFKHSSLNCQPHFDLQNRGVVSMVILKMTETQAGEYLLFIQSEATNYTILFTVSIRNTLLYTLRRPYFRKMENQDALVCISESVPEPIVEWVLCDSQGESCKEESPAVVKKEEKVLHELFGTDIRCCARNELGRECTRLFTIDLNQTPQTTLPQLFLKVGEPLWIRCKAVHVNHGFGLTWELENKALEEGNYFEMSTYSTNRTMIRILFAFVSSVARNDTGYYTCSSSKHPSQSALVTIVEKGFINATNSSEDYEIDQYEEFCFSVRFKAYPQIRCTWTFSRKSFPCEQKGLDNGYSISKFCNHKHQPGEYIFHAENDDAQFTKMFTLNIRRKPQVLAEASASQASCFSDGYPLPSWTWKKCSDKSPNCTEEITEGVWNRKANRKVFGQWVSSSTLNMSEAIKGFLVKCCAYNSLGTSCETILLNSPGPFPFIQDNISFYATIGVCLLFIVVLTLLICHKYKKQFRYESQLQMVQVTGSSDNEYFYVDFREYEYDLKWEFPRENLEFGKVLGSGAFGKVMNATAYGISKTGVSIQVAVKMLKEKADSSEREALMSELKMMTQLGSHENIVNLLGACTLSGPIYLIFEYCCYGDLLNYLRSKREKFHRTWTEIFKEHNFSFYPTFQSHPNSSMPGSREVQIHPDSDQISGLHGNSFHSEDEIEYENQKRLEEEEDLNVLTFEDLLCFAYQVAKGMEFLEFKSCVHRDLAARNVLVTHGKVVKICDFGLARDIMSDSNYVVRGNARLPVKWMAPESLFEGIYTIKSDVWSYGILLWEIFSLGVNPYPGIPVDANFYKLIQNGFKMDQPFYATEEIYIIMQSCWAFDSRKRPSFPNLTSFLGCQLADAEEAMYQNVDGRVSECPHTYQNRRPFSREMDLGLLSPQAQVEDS

[6] = Intrinsic clearance in human liver microsomes; type: ADME, Microsome; details: read-out: CLH
[7] = target: T3, Tyrosine-protein kinase Mer (Homo sapiens, UniProt Q12866); assay: as §1, with “6His/thrombin cleavage site-fused Avi-tagged dephosphorylated MER” for “GST-tagged AXL”, “(R528” for “(464”, “M999” for “485”, “120” for “180”
T3 sequence (Q12866 whole entry): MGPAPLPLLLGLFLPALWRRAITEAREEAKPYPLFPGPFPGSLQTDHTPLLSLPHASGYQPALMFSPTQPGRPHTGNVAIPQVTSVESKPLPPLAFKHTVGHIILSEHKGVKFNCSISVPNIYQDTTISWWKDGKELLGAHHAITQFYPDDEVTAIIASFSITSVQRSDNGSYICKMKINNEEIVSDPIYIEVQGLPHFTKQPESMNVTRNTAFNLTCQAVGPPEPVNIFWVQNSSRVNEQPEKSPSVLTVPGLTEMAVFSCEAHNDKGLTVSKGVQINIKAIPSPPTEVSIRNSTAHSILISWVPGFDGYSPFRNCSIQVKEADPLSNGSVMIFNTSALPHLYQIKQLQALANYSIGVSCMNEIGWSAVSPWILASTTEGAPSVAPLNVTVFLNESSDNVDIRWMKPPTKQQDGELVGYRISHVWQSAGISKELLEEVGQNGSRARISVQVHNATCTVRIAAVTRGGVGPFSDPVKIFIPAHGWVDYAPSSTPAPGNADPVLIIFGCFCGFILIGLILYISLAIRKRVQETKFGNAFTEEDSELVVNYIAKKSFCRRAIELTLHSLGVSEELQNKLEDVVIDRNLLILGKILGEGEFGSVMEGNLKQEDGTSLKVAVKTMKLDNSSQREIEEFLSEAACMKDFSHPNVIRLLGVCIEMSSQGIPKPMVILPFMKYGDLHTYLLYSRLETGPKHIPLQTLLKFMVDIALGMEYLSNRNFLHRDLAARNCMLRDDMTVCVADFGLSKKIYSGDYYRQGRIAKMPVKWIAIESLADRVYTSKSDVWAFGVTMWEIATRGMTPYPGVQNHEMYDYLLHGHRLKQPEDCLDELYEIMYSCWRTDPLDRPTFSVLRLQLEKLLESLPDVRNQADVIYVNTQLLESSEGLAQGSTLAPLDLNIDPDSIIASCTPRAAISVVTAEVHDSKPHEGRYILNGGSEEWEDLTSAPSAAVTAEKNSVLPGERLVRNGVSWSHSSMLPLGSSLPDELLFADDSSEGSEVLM

[8] = target: T2, Receptor-type tyrosine-protein kinase FLT3; assay: Inhibition of His6/TEV fused-GST-tagged Flt3 (unknown origin) (H564 to S993 residues) using Axltide (CKKSRGDYMTMQJ-acid) peptide as substrate preincubated for 30 mins followed by substrate addition in presence of ATP and measured for 90 mins by ADP-Glo Reagent based method
[9] = target: T1, Tyrosine-protein kinase receptor UFO; assay: Inhibition of GST-tagged AXL (unknown origin) ([…] residues) using Axltide (CKKSRGDYMTMQJG-acid) peptide as substrate preincubated for 30 mins followed by substrate and ATP addition at Km concentration measured after 40 mins by ADP-Glo Reagent based method

| SMILES | logD [1] | hepatocyte CLint [2] | solubility [3] | IC50 [4] | IC50 [5] | microsomal CLint [6] | IC50 [7] | IC50 [8] | IC50 [9] |
| --- | --- | --- | --- | --- | --- | --- | --- | --- | --- |
| CS(=O)(=O)c1cnc(Nc2ccc(O)cc2)nc1NCc1ccccc1 | 2.8 | 32 µL/min/1e6 cells | 27 µM (≈ 10 µg/mL) | 1580 nM | 1260 nM | 5 µL/min/mg | 398 nM |  |  |
| COc1cc2c(Nc3cnc(NC(=O)c4cccn4C)nc3)ncnc2cc1OCCCNC1CCCC1 | 1.8 | < 1 µL/min/1e6 cells | 1000 µM (≈ 517 µg/mL) |  |  | < 3 µL/min/mg | 100 nM | 10000 nM | 126 nM |
| CNC(=O)c1cnc(Nc2ccc(OC)cc2C)nc1NC1CCCC1 | 4.2 | 130 µL/min/1e6 cells | 10 µM (≈ 3.55 µg/mL) |  |  | 37 µL/min/mg | 794 nM | > 79400 nM | 31600 nM |
| O=C(Nc1ccc(Oc2cc(NC(=O)C3CC3)ncn2)cc1)Nc1ccc(CN2CCn3ccnc3C2)c(C(F)(F)F)c1 | 4.5 | 9 µL/min/1e6 cells | 3 µM (≈ 1.78 µg/mL) | 398 nM | 3.16 nM | 16 µL/min/mg | 6.31 nM |  |  |
| CNc1nc(OC2CCCC2)nc2c1ncn2Cc1c(F)cccc1F | 4.3 | 190 µL/min/1e6 cells | 9 µM (≈ 3.23 µg/mL) |  |  | 240 µL/min/mg | 126 nM | 100000 nM | 794 nM |
| COc1cc2c(Nc3cnc(OCCCC4CCCC4)nc3)ncnc2cc1OCCCN1CCCCC1 | 4.5 | 2 µL/min/1e6 cells | 130 µM (≈ 67.7 µg/mL) | 10 nM | 20 nM | 96 µL/min/mg | 0.794 nM |  |  |

Source: ChEMBL document CHEMBL4732252, “Generating Selective Leads for Mer Kinase Inhibitors-Example of a Comprehensive Lead-Generation Strategy” (J Med Chem, 2021)
